Marks after values point to notes of the source that are not given here.
Key:
[1] = tested on: biomarkers in lesional AD skin; details: 4 weeks, qRT-PCR; cited from earlier work
[2] = tested on: skin barrier and inflammation biomarkers in lesional skin biopsies; assay: Biomarker gene expression in lesional skin biopsies by qRT-PCR (TLDA), Example 3; format: in vivo, human; details: only responder population, 3 weeks
Protocol: (§1) Patients received topical applications of a niclosamide 2% composition and vehicle once daily for 3 weeks, followed by a 1-week follow up period. Topical niclosamide 2% and vehicle was applied on two separate target lesions of atopic dermatitis (lesions of at least 3×3-cm that are at least 2 cm apart, excluding the face, scalp, genitals, hands, and feet). The application areas (5×5-cm) were randomized (1:1) to once daily application of niclosamide 2% or vehicle at 5 mg/cm^2 without occlusion 6 days per week. Patients came to the study site for all study product application for a total of 3 weeks.
(§2) Three skin biopsies were collected in all patients (one from lesional skin at baseline, pre-dosing at Day 1, and two from lesional skin at Day 22 (one where topical niclosamide 2% had been applied and one where the vehicle had been applied). The lesional skin biopsies were analysed for skin thickness and inflammation biomarkers.
Skin barrier and inflammation biomarker levels were determined from lesional skin biopsies from application areas.
(§3) The skin biopsy samples were analysed by immunohistochemistry (IHC), and by gene expression studies by RT-PCR using TaqMan Low Density Array (TLDA), and by microarray using Affymetrix U133A Plus 2. The immunohistochemistry (IHC) was used to analyse cell biomarkers. The methodologies as disclosed by Guttman-Yassky et al, “Major differences in inflammatory dendritic cells and their products distinguish atopic dermatitis from psoriasis”, The Journal of Allergy and Clinical Immunology, vol. 119, issue 5, pages 1210-1217, 2007, were followed except for that U133A Plus 2-set Gene Chip probe arrays was used instead of U95A-set Gene Chip probe arrays.
Expression values (threshold cycle [Ct]) were normalized to Rplp0 by negatively transforming the Ct values to −dCt (IL17A was normalized to hARP, as analysed by qPCR). The undetected −dCt values were estimated for each gene as the 20% of the minimum across all samples. qRT-PCR expression data were modelled using a mixed effect model with Visit and Treatment Area as a fixed effect and a random intercept for each patient. This formulation intrinsically models the within patient correlation structure as in the case of a paired t-test. This approach introduces less bias than restricting the analysis for those patients who completed the study. Contrasts were used to estimate the fold changes with treatment within each treatment group and conduct hypothesis testing.

[3] = tested on: skin barrier and inflammation biomarkers in lesional skin biopsies; assay: Biomarker gene expression in lesional skin biopsies by microarray (Affymetrix U133A Plus 2), Example 3; format: in vivo, human
Protocol: as §1, §2, §3
Experimental design: The hybridization strategy was in concordance with experimental design principles, by for example keeping all samples from the same patient in the same date, and always include samples from every treatment arm/group.
Quality Control and Pre-processing: Quality control of microarray chips were carried out using standard QC metrics and R package microarray Quality Control. Expression measures were obtained using GCRMA algorithm (Wu & Irizarry, 2004). Several visual and modelling techniques were used to elucidate if batch effect existed. Principal Component analysis plots were used to detect if any evident batch effect existed. If such batch effects were found, they were adjusted using Combat, an empirical Bayes method for adjusting data for batch effects that is robust to outliers in small sample sizes (Johnson, Li, & Rabinovic, 2007). The implementation of Combat by package sva was used.
Probe-sets with at least 5% samples with expression larger than 3 (in log 2-scale) were kept for further analysis. Expression values were modelled using mixed-effect models with fixed factors Visit and Treatment Area and a random effect for each patient. Fold changes for the comparisons of interest were estimated and hypothesis testing was conducted on such comparisons using contrasts under the general framework for linear models in limma package. The inter-replicate correlation was computed by Duplicate Correlation function and the linear model was estimated by ImFit. P-values from the moderated (paired) t-test were adjusted for multiple hypotheses using the Benjamini-Hochberg procedure, which controls for FDR.

[4] = tested on: CD3, langerin, CD11c and FceR1 cells in skin biopsies; assay: Immunohistochemistry (IHC) of cell markers in lesional skin biopsies, Example 3; format: in vivo, human; details: Day 22, 2% topical
Protocol: as §2, §3

dendritic cells = details: in-vitro; cited from earlier work
[5] = microarray fold change, Day 22, sign as niclosamide vs vehicle
[6] = only responder population, 3 weeks, Microarray

## Dupilumab: inhibits interleukin-4 and interleukin-13 signalling by binding to interleukin-4 receptor α
[1]
  CCL17, Dupilumab 300 mg vs. predose: −9.2^b
  CCL18, Dupilumab 300 mg vs. predose: −7.6^c
  CCL22, Dupilumab 300 mg vs. predose: −2.1^d
  CCL26, Dupilumab 300 mg vs. predose: −6.3^c
  K16/KRT16, Dupilumab 300 mg vs. predose: −10.7^b
  MMP12, Dupilumab 300 mg vs. predose: −14^b
  S100A8, Dupilumab 300 mg vs. predose: −3^d
  S100A12, Dupilumab 300 mg vs. predose: −10.4^b

## O=C(Nc1ccc([N+](=O)[O-])cc1Cl)c1cc(Cl)ccc1O [Niclosamide, niclosamide]
[2]
  CCL17, Niclosamide 2% qd vs. predose: −3.42^d
  CCL18, Niclosamide 2% qd vs. predose: −3.46^d
  CCL20, Niclosamide 2% qd vs. predose: −2^d
  CCL22, Niclosamide 2% qd vs. predose: −2.56^d
  CXCL1, Niclosamide 2% qd vs. predose: −3.82^d
  CXCL2, Niclosamide 2% qd vs. predose: −2.11^d
  CXCL10, Niclosamide 2% qd vs. predose: −1.96^d
  DEFB4B, Niclosamide 2% qd vs. predose: −7.18^c
  FLG, Niclosamide 2% qd vs. predose: 2.06^e
  IL5, Niclosamide 2% qd vs. predose: −3.69^d
  IL10, Niclosamide 2% qd vs. predose: −2.16^d
  IL13, Niclosamide 2% qd vs. predose: −3.18^d
  IL17A, Niclosamide 2% qd vs. predose: −3.12^d
  IL17C, Niclosamide 2% qd vs. predose: −3.91^d
  IL19, Niclosamide 2% qd vs. predose: −6.65^c
  K16/KRT16, Niclosamide 2% qd vs. predose: −8.46^c
  LOR, Niclosamide 2% qd vs. predose: 2.84^f
  MMP12, Niclosamide 2% qd vs. predose: −5.12^c
  PI3, Niclosamide 2% qd vs. predose: −11.2^b
  S100A12, Niclosamide 2% qd vs. predose: −10.5^b
[3]; [5]
  CXCL1, 2% niclosamide compared to vehicle: −2.10
  S100A12, 2% niclosamide compared to vehicle: −2.30
[3]; [6]
  CD3d, Niclosamide 2% qd vs. predose: −2.2^d
  IL4R, Niclosamide 2% qd vs. predose: −2.19^d
  IL15, Niclosamide 2% qd vs. predose: −1.59^d
  IL22, Niclosamide 2% qd vs. predose: −2.1^d
  JAK3, Niclosamide 2% qd vs. predose: −1.86^d
  S100A8, Niclosamide 2% qd vs. predose: −1.82^d
  S100A9, Niclosamide 2% qd vs. predose: −5.15^d
  STAT3, Niclosamide 2% qd vs. predose: −1.54^d
[4]
  inflammatory cells (dendritic cells: CD11c, FceR1 in epidermis; Langerhans cells: langerin/CD207) compared to baseline: Significant reductions in inflammatory cells
  total amount of T cells (dermis and epidermis) compared to baseline: No significant change
Dendritic cells
  LPS-induced dendritic cell maturation, cytokine, costimulatory and MHC molecule expression: inhibitory action
